Test results as given in patent publication US20220125051A1, “PRE-HARVEST DESICCATION METHOD” (SYNGENTA CROP PROTECTION AG, priority 2019, published 2022).
Like-named read-outs stand apart in the source and are kept apart here.

Experiments:
Experiment in all cases: Post-emergence efficacy, Method A
Format in all cases: in vivo
[1] = tested on: Digitaria sanguinalis (DIGSA); details: evaluated after 13 days; for pest or weed control at 500 g/ha: Digitaria sanguinalis, post-emergence, 312 h
Method in brief: (§1)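 Sow in standard soil; grow 14 d under glasshouse control (24/16 °C, 14 h light, 65% humidity). Spray post-emergence with compound formulated in acetone/IF50, diluted in Empicol ESC70 (0.25% or 1%) + 1% ammonium sulphate. Return to glasshouse, water twice daily, score at 13 d on a 0–100 damage scale.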

[2] = tested on: Amaranthus palmeri (AMAPA); details: evaluated after 13 days; for pest or weed control at 500 g/ha: Amaranthus palmeri, post-emergence, 312 h
Method in brief: as §1

[3] = tested on: Chenopodium album (CHEAL); details: evaluated after 13 days; for pest or weed control at 500 g/ha: Chenopodium album, post-emergence, 312 h
Method in brief: as §1

[4] = tested on: Ipomoea hederacea (IPOHE); details: evaluated after 13 days; for pest or weed control at 500 g/ha: Ipomoea hederacea, post-emergence, 312 h
Method in brief: as §1

Lolium perenne (LOLPE) = details: evaluated after 13 days; for pest or weed control at 500 g/ha: Lolium perenne, post-emergence, 312 h
Method in brief: as §1

Eleusine indica (ELEIN) = details: evaluated after 13 days; for pest or weed control at 500 g/ha: Eleusine indica, post-emergence, 312 h
Method in brief: as §1

Setaria faberi (SETFA) = details: evaluated after 13 days; for pest or weed control at 500 g/ha: Setaria faberi, post-emergence, 312 h
Method in brief: as §1

[5] = tested on: Euphorbia heterophylla (EPHHL); details: evaluated after 13 days; for pest or weed control at 500 g/ha: Euphorbia heterophylla, post-emergence, 312 h
Method in brief: as §1

[6] = tested on: Echinochloa crus-galli (ECHCG); details: evaluated after 13 days; for pest or weed control at 500 g/ha: Echinochloa crus-galli, post-emergence, 312 h
Method in brief: as §1

[7] = Application Rate 500 g/Ha, Method A, read-out: Control of weed species after post-emergence application, DIGSA (100=total damage to plant; 0=no damage to plant)
[8] = Application Rate 500 g/Ha, Method A, read-out: Control of weed species after post-emergence application, AMAPA (100=total damage to plant; 0=no damage to plant)
[9] = Application Rate 500 g/Ha, Method A, read-out: Control of weed species after post-emergence application, CHEAL (100=total damage to plant; 0=no damage to plant)
[10] = Application Rate 500 g/Ha, Method A, read-out: Control of weed species after post-emergence application, IPOHE (100=total damage to plant; 0=no damage to plant)
[11] = Application Rate 500 g/Ha, Method A, read-out: Control of weed species after post-emergence application, LOLPE (100=total damage to plant; 0=no damage to plant)
[12] = Application Rate 500 g/Ha, Method A, read-out: Control of weed species after post-emergence application, ELEIN (100=total damage to plant; 0=no damage to plant)
[13] = Application Rate 500 g/Ha, Method A, read-out: Control of weed species after post-emergence application, SETFA (100=total damage to plant; 0=no damage to plant)
[14] = Application Rate 500 g/Ha, Method A, read-out: Control of weed species after post-emergence application, EPHHL (100=total damage to plant; 0=no damage to plant)
[15] = Application Rate 500 g/Ha, Method A, read-out: Control of weed species after post-emergence application, ECHCG (100=total damage to plant; 0=no damage to plant)
[16] = Application rate 500 g/Ha, 100=total damage to plant, 0=no damage to plant
[17] = Application rate 500 g/Ha, 100=total damage to plant, 0=no damage to plant, read-out: Control of weed species after post-emergence application, DIGSA
[18] = Application rate 500 g/Ha, 100=total damage to plant, 0=no damage to plant, read-out: Control of weed species after post-emergence application, AMAPA
[19] = Application rate 500 g/Ha, 100=total damage to plant, 0=no damage to plant, read-out: Control of weed species after post-emergence application, CHEAL
[20] = Application rate 500 g/Ha, 100=total damage to plant, 0=no damage to plant, read-out: Control of weed species after post-emergence application, IPOHE
[21] = Application rate 500 g/Ha, 100=total damage to plant, 0=no damage to plant, read-out: Control of weed species after post-emergence application, LOLPE
[22] = Application rate 500 g/Ha, 100=total damage to plant, 0=no damage to plant, read-out: Control of weed species after post-emergence application, ELEIN
[23] = Application rate 500 g/Ha, 100=total damage to plant, 0=no damage to plant, read-out: Control of weed species after post-emergence application, SETFA
[24] = Application rate 500 g/Ha, 100=total damage to plant, 0=no damage to plant, read-out: Control of weed species after post-emergence application, EPHHL
[25] = Application rate 500 g/Ha, 100=total damage to plant, 0=no damage to plant, read-out: Control of weed species after post-emergence application, ECHCG

Row | SMILES | pest or weed control at 500 g/ha [1, 7] | pest or weed control at 500 g/ha [2, 8] | pest or weed control at 500 g/ha [3, 9] | pest or weed control at 500 g/ha [4, 10] | pest or weed control at 500 g/ha (Lolium perenne (LOLPE); [11]) | pest or weed control at 500 g/ha (Eleusine indica (ELEIN); [12]) | pest or weed control at 500 g/ha (Setaria faberi (SETFA); [13]) | pest or weed control at 500 g/ha [5, 14] | pest or weed control at 500 g/ha [6, 15] | pest or weed control at 500 g/ha [1, 17] | pest or weed control at 500 g/ha [2, 18] | pest or weed control at 500 g/ha [3, 19] | pest or weed control at 500 g/ha [4, 20] | pest or weed control at 500 g/ha (Lolium perenne (LOLPE); [21]) | pest or weed control at 500 g/ha (Eleusine indica (ELEIN); [22]) | pest or weed control at 500 g/ha (Setaria faberi (SETFA); [23]) | pest or weed control at 500 g/ha [5, 24] | pest or weed control at 500 g/ha [6, 25] | also measured
1 | O=C(O)C(O)C[n+]1ccc(-c2ncccn2)cn1 (stereo not drawn) [Compound A180] | 60% | 100% | 90% | 20% | 30% | 90% | 70% | 80% | 70% | – | – | – | – | – | – | – | – | – | –
2 | O=C(O)c1ccnc(-c2cc[n+](CCCS(=O)(=O)[O-])nc2)n1 [Compound A146] | – | – | – | – | – | – | – | – | – | – | – | – | – | – | – | – | – | – | Control of weed species after post-emergence application, DIGSA [1, 16]: 80; Control of weed species after post-emergence application, AMAPA [2, 16]: 90; Control of weed species after post-emergence application, CHEAL [3, 16]: 40; Control of weed species after post-emergence application, IPOHE [4, 16]: 30; Control of weed species after post-emergence application, LOLPE (Lolium perenne (LOLPE); [16]): 50; Control of weed species after post-emergence application, ELEIN (Eleusine indica (ELEIN); [16]): 80; Control of weed species after post-emergence application, SETFA (Setaria faberi (SETFA); [16]): 100; Control of weed species after post-emergence application, EPHHL [5, 16]: 50; Control of weed species after post-emergence application, ECHCG [6, 16]: 90
3 | N#Cc1ccnc(-c2cc[n+](CCO)nc2)n1 [Compound A186] | 60% | 70% | 70% | 30% | 10% | 50% | 60% | 30% | 30% | – | – | – | – | – | – | – | – | – | –
4 | CN(C)c1ccnc(-c2cc[n+](CCS(=O)(=O)[O-])nc2)n1 [Compound A16] | – | – | – | – | – | – | – | – | – | 50% | 60% | 30% | 40% | 10% | 70% | 50% | 50% | 60% | –
5 | O=S(=O)([O-])CC[n+]1ccc(-c2ncc(Cl)cc2Cl)cn1 [Compound A142] | – | – | – | – | – | – | – | – | – | 40% | 10% | 20% | 20% | 10% | 60% | 30% | 60% | 40% | –
6 | O=S(=O)([O-])CC[n+]1ccc(-c2ncc(CO)cn2)cn1 [Compound A170] | 40% | 100% | 100% | 40% | 50% | 40% | 80% | 70% | 80% | – | – | – | – | – | – | – | – | – | –
